Data taken from PubChem BioAssay (NCI).
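Method: 48-hour compound exposure of cells in 96-well plates, five concentrations, linear interpolation of endpoints. The concentration for full growth arrest is given as TGI.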

How the values were obtained:
Test in all cases: DTP human tumour cell line panel, 48 h
786-0 renal = tested on: 786-0 renal
A549 NSCLC = tested on: A549 NSCLC
ACHN renal = tested on: ACHN renal
CAKI-1 renal = tested on: CAKI-1 renal
COLO 205 colon = tested on: COLO 205 colon
DMS 114 small cell lung = tested on: DMS 114 small cell lung
DMS 273 small cell lung = tested on: DMS 273 small cell lung
EKVX NSCLC = tested on: EKVX NSCLC
HCC-2998 colon = tested on: HCC-2998 colon
HCT-116 colon = tested on: HCT-116 colon
HCT-15 colon = tested on: HCT-15 colon
HOP-18 NSCLC = tested on: HOP-18 NSCLC
HT29 colon = tested on: HT29 colon
IGROV1 ovarian = tested on: IGROV1 ovarian
K-562 leukemia = tested on: K-562 leukemia
KM12 colon = tested on: KM12 colon
KM20L2 colon = tested on: KM20L2 colon
LXFL 529 NSCLC = tested on: LXFL 529 NSCLC
M19-MEL melanoma = tested on: M19-MEL melanoma
MALME-3M melanoma = tested on: MALME-3M melanoma
MOLT-4 leukemia = tested on: MOLT-4 leukemia
NCI-H226 lung = tested on: NCI-H226 lung
NCI-H23 lung = tested on: NCI-H23 lung
NCI-H460 lung = tested on: NCI-H460 lung
NCI-H522 lung = tested on: NCI-H522 lung
OVCAR-3 ovarian = tested on: OVCAR-3 ovarian
OVCAR-4 ovarian = tested on: OVCAR-4 ovarian
OVCAR-5 ovarian = tested on: OVCAR-5 ovarian
OVCAR-8 ovarian = tested on: OVCAR-8 ovarian
RPMI-8226 leukemia = tested on: RPMI-8226 leukemia
RXF 393 renal = tested on: RXF 393 renal
RXF-631 renal = tested on: RXF-631 renal
SF-295 CNS = tested on: SF-295 CNS
SF-539 CNS = tested on: SF-539 CNS
SK-MEL-2 melanoma = tested on: SK-MEL-2 melanoma
SK-MEL-28 melanoma = tested on: SK-MEL-28 melanoma
SK-MEL-5 melanoma = tested on: SK-MEL-5 melanoma
SK-OV-3 ovarian = tested on: SK-OV-3 ovarian
SN12C renal = tested on: SN12C renal
SNB-19 CNS = tested on: SNB-19 CNS
SNB-75 CNS = tested on: SNB-75 CNS
SNB-78 CNS = tested on: SNB-78 CNS
SR leukemia = tested on: SR leukemia
SW-620 colon = tested on: SW-620 colon
TK-10 renal = tested on: TK-10 renal
U251 CNS = tested on: U251 CNS
UACC-257 melanoma = tested on: UACC-257 melanoma
UACC-62 melanoma = tested on: UACC-62 melanoma
UO-31 renal = tested on: UO-31 renal
XF 498 CNS = tested on: XF 498 CNS
A498 renal = tested on: A498 renal
CCRF-CEM leukemia = tested on: CCRF-CEM leukemia
DLD-1 colon = tested on: DLD-1 colon
HL-60(TB) leukemia = tested on: HL-60(TB) leukemia
HOP-62 NSCLC = tested on: HOP-62 NSCLC
HOP-92 NSCLC = tested on: HOP-92 NSCLC
LOX IMVI melanoma = tested on: LOX IMVI melanoma
M14 melanoma = tested on: M14 melanoma
SF-268 CNS = tested on: SF-268 CNS

Measured: TGI

C=C(CCCO)[C@@H]1CC[C@@](C)(O)[C@H]1C
not listed: A498 renal | CCRF-CEM leukemia | DLD-1 colon | HL-60(TB) leukemia | HOP-62 NSCLC | HOP-92 NSCLC | LOX IMVI melanoma | M14 melanoma | SF-268 CNS
> 100 µM: all other assays above

Cc1cc(Cl)ccc1NC(=O)C(=O)C(C(=O)c1ccccc1)C1OC(=O)c2ccccc21 (stereo unspecified)
not listed: OVCAR-3 ovarian | RXF-631 renal
> 100 µM: all other assays above

CSCCC(C(=O)O)N(CC1(O)OCC(O)C(O)C1O)N=O (stereo unspecified)
not listed: CAKI-1 renal | HCT-15 colon | HOP-18 NSCLC | NCI-H226 lung | OVCAR-4 ovarian | SF-295 CNS | SN12C renal | SNB-19 CNS | SR leukemia | SF-268 CNS
> 100 µM: all other assays above
